Measurements as given in patent US4791139A, “Diphenyl ether derivatives and their use as insecticides” (Imperial Chemical Industries PLC, priority 1986, dated 1988).

What was measured:
Type in all cases: in vivo
[1] = system: Tetranychus urticae (spider mites - ova); assay: Contact test, spider mites - ova (TUe), French bean leaf; details: 144 h, 500 ppm, 6 days, read-out: TUE grading of mortality
Method: (§1) The activity of the Product was determined using a variety of insect pests. The Product was used in the form of liquid preparations containing from 100 to 500 parts per million (ppm) by weight of the Product. The preparations were made by dissolving the Product in acetone and diluting the solutions with water containing 0.1% by weight of a wetting agent sold under the trade name "SYNPERONIC" NX until the liquid preparations contained the required concentration of the Product. "SYNPERONIC" is a Registered Trade Mark. The test procedure adopted with regard to each pest was basically the same and comprised supporting a number of the pests on a medium which was usually a host plant or a foodstuff on which the pests feed, and treating either or both the pests and the medium with the preparations. The mortality of the pests was then assessed at periods usually varying from one to seven days after the treatment.

[2] = system: Nilaparvata lugens (brown plant hopper - nymphs); assay: Contact test, brown plant hopper - nymphs (NL), Rice plant; details: 72 h, 500 ppm, 3 days, read-out: NL grading of mortality
Method: as §1

[3] = system: Meloidogyne incognita (Tomato root knot eelworm - larvae); assay: Residual test, Tomato root knot eelworm - larvae (MI), Semi in-vitro; details: 168 h, rate column 500 ppm, application rate is half that recorded, 7 days, read-out: MI grading of mortality
[4] = system: Tetranychus urticae (spider mites - adult); assay: Contact test, spider mites - adult (TUa), French bean leaf; details: 72 h, 500 ppm, 3 days, read-out: TUA grading of mortality
Method: as §1

[5] = system: Musca domestica (houseflies - adults); assay: Contact test, houseflies - adults (MD), Cotton wool/sugar; details: 24 h, 500 ppm, 1 day, read-out: MD grading of mortality
Method: as §1

[6] = system: Heliothis virescens (tobacco budworm - larvae); assay: Residual test, tobacco budworm - larvae (HV), Cotton leaf; details: 72 h, read-out: HV grading of mortality
Method: (§2) The activity of the Product was determined using a variety of insect pests. The Product was used in the form of liquid preparations containing from 100 to 500 parts per million (ppm) by weight of the Product. The preparations were made by dissolving the Product in acetone and diluting the solutions with water containing 0.1% by weight of a wetting agent sold under the trade name "SYNPERONIC" NX until the liquid preparations contained the required concentration of the Product. "SYNPERONIC" is a Registered Trade Mark.
(§3) The test procedure adopted with regard to each pest was basically the same and comprised supporting a number of the pests on a medium which was usually a host plant or a foodstuff on which the pests feed, and treating either or both the pests and the medium with the preparations. The mortality of the pests was then assessed at periods usually varying from one to seven days after the treatment.
(§4) The results of the tests are given in Table III for each of the Products, at the rate in parts per million given in the second column as a grading of mortality designated as A, B or C wherein A indicates 80-100% mortality or knockdown (70-100% for Meloidogyne incognita), B indicates 50-79% mortality knockdown or knockdown (50-69% for Meloidogyne incognita) and C indicates less than 50% mortality or knockdown.
(§5) In Table III the pest organism used is designated by a letter code and the pests species, the support medium or food, and the type and duration of test is given in Table II.
(tobacco budworm - larvae)

[7] = system: Diabrotica balteata (rootworm larvae); assay: Residual test, rootworm larvae (DB), Filter paper/maize seed; details: 72 h, 500 ppm, 3 days, read-out: DB grading of mortality
Method: as §1

[8] = system: Blattella germanica (cockroach nymphs); assay: Residual test, cockroach nymphs (BG), Plastic pot; details: 72 h, 500 ppm, 3 days, read-out: BG grading of mortality
Method: as §1

[9] = system: Spodoptera exigua (lesser army worm - larvae); assay: Residual test, lesser army worm - larvae (SP), Cotton leaf; details: 72 h, 500 ppm, 3 days, read-out: SP grading of mortality
Method: as §2, §3, §4, §5
(lesser army worm - larvae)

Myzus persicae (aphids) = assay: Contact test, aphids (MP), Chinese Cabbage leaf; details: 72 h, 500 ppm, 3 days, read-out: MP grading of mortality
Method: as §1, with “treatment. […] In Table III the pest organism used is designated by a letter code and the pests species, the support medium or food, and the type and duration of test is given in Table II.” for “treatment.”

[10] = system: Musca domestica (houseflies - adults); assay: Knockdown test, houseflies - adults (MD/KD), Cotton wool/sugar; details: 500 ppm, 4 hours, read-out: MD/KD grading of knockdown
Method: as §2, §3
In the case of the species Musca domestica (housefly), an additional assessment to determine the knockdown effect of the compounds was performed.
as §5

SMILES	mortality at 500 ppm [1]	mortality at 500 ppm [2]	mortality at 250 µg/mL [3]	mortality at 500 ppm [4]	mortality at 500 ppm [5]	mortality at 500 ppm [6]	mortality at 500 ppm [7]	mortality at 500 ppm [8]	mortality at 500 ppm [9]	mortality at 500 ppm (Myzus persicae (aphids))	pest or weed control at 500 ppm [10]
Fc1ccc(CCCC(c2ccc(OC(F)(F)F)cc2)C(F)F)cc1Oc1ccccc1 (racemic) [Compound 27, 1,1-Difluoro-2-(4-trifluoromethoxyphenyl)-5-(4-fluoro-3-phenoxyphenyl)pentane]	< 50%	80 to 100%	< 50%	80 to 100%	80 to 100%	80 to 100%	80 to 100%	80 to 100%	80 to 100%	80 to 100%	80 to 100%
CCOc1ccc(C(CCCc2c(F)c(F)c(F)c(F)c2F)C(F)(F)F)cc1 (racemic) [Compound 43, 1,1,1-Trifluoro-2-(4-ethoxyphenyl)-5-(pentafluorophenyl)pentane]	< 50%	< 50%	< 50%	< 50%	50 to 79%	< 50%	80 to 100%	50 to 79%	80 to 100%	< 50%	50 to 79%
COCc1ccc(C(CCCc2cccc(Oc3ccccc3)c2)C(F)(F)F)cc1 (racemic) [Compound 45, 1,1,1-Trifluoro-2-(4-methoxymethylphenyl)-5-(3-phenoxyphenyl)pentane]	< 50%	80 to 100%	< 50%	< 50%	80 to 100%	80 to 100%	80 to 100%	< 50%	80 to 100%	< 50%	80 to 100%
COc1ccc(C(CCCc2cccc(Oc3ccccc3)c2)C(F)(F)F)cc1 (racemic) [Compound 49, 1,1,1-Trifluoro-2-(4-methoxyphenyl)-5-(3-phenoxyphenyl)pentane]	< 50%	80 to 100%	< 50%	< 50%	80 to 100%	80 to 100%	< 50%	< 50%	80 to 100%	80 to 100%	80 to 100%
FC(F)C(CCCc1cccc(Oc2ccccc2)c1)c1ccc(OC(F)(F)F)cc1 (racemic) [Compound 83, 1,1-Difluoro-2-(4-trifluoromethoxyphenyl)-5-(3-phenoxyphenyl)pentane]	80 to 100%	80 to 100%	–	80 to 100%	80 to 100%	80 to 100%	80 to 100%	80 to 100%	80 to 100%	80 to 100%	80 to 100%
CCOc1ccc(C(CCCc2ccc(F)c(Cc3ccccc3)c2)C(F)(F)F)cc1 (racemic) [Compound 106, 1,1,1-Trifluoro-2-(4-ethoxyphenyl)-5-(3-benzyl-4-fluorophenyl)pentane]	80 to 100%	80 to 100%	–	80 to 100%	80 to 100%	80 to 100%	80 to 100%	80 to 100%	80 to 100%	80 to 100%	80 to 100%
FC(F)(F)C(CCCc1cccc(Oc2ccccc2)c1)c1ccc2c(c1)OCO2 (stereo not shown) [Compound 40, 1,1,1-Trifluoro-2-(3,4-methylenedioxy)phenyl-5-(3-phenoxyphenyl)pentane]	< 50%	< 50%	–	< 50%	80 to 100%	80 to 100%	80 to 100%	50 to 79%	80 to 100%	80 to 100%	80 to 100%
FC(F)(F)C(=CCCc1cccc(Oc2ccccc2)c1)c1ccc2c(c1)OCO2 [Compound 41, 1,1,1-Trifluoro-2-(3,4-methylenedioxyphenyl)-5-(3-phenoxyphenyl)pent-2-ene]	< 50%	< 50%	–	< 50%	80 to 100%	50 to 79%	80 to 100%	< 50%	50 to 79%	< 50%	80 to 100%
CCOc1ccc(C(CCCc2cccc(Oc3ccccc3)n2)C(F)(F)F)cc1 (stereo not shown) [Compound 98]	< 50%	< 50%	–	80 to 100%	80 to 100%	80 to 100%	80 to 100%	80 to 100%	80 to 100%	80 to 100%	80 to 100%
Fc1ccc(C=CC=C(c2ccc(OC(F)(F)F)cc2)C(F)(F)F)cc1Cc1ccccc1 [Compound 105, 1,1,1-Trifluoro-2-(4-trifluoromethoxyphenyl)-5-(4-fluoro-3-benzylphenyl)penta-2,4-diene]	80 to 100%	80 to 100%	–	80 to 100%	< 50%	< 50%	80 to 100%	80 to 100%	80 to 100%	80 to 100%	< 50%
CCOc1ccc(C(=CC=Cc2ccc(F)c(Cc3ccccc3)c2)C(F)(F)F)cc1 [Compound 107, 1,1,1-Trifluoro-2-(4-ethoxyphenyl)-5-(4-fluoro-3-benzylphenyl)penta-2,4-diene]	< 50%	50 to 79%	–	< 50%	< 50%	< 50%	80 to 100%	< 50%	80 to 100%	80 to 100%	< 50%
Fc1ccc(CCCC(c2ccc(OC(F)(F)F)cc2)C(F)(F)F)cc1Cc1ccccc1 (stereo not shown) [Compound 108]	80 to 100%	80 to 100%	–	80 to 100%	80 to 100%	80 to 100%	< 50%	80 to 100%	80 to 100%	80 to 100%	80 to 100%
